The text below walks through data of patent US11325889B2, “Substituted 3-((3-aminophenyl)amino)piperidine-2,6-dione compounds, compositions thereof, and methods of treatment therewith” (Celgene Corporation, priority 2018, dated 2022).

Structures are written as SMILES.

This test addresses T1, AR protein in VCaP cells (Homo sapiens, UniProt P10275).
T1 construct: endogenous in cells; host or cells: VCaP cells
T1 sequence (P10275 1-920): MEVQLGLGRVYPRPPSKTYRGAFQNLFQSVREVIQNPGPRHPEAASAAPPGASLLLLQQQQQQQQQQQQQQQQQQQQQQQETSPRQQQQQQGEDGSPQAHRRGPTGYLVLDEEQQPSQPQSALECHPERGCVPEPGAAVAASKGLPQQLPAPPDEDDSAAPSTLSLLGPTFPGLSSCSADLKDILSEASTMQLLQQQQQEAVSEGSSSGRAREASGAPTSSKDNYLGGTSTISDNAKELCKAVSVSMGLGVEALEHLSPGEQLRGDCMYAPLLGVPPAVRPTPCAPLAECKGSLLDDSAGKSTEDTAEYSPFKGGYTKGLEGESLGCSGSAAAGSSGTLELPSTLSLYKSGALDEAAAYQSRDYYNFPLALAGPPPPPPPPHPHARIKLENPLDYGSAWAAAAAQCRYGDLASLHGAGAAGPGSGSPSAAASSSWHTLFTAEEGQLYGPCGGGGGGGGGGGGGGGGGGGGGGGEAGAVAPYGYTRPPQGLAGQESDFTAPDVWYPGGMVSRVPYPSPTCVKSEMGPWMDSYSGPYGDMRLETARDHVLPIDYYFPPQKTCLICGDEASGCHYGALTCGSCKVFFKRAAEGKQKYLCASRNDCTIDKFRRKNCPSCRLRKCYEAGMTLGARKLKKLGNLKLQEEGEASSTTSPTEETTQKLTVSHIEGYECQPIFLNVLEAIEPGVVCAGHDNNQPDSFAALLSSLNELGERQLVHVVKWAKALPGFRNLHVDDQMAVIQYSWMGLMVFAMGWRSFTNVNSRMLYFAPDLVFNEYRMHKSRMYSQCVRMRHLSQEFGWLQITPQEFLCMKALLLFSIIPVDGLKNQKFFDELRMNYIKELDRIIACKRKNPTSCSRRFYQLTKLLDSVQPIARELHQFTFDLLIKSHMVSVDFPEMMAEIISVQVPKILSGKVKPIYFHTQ
The test can be described thus: VCAP AR Degradation Assay (AR ELISA, 24 h). Type of test: cell-based. Particulars: for Y (lowest measured AR level normalized to DMSO control): AR degradation efficiency; for DC50: concentration of compound when AR level = 50% of DMSO control, read-out: DC50. On the procedure:
VCAP AR Degradation Assay.
Test compounds were pre-dispensed into a Corning CellBind 96-well clear bottom plate (Cat #3300) using an acoustic dispenser to make a 10-point concentration series at 1:3 dilution for each compound. The final top concentration of each compound was […]. DMSO at a final concentration of 0.1% was used as a control. VCaP cells cultured in DMEM with 8% fetal bovine serum (FBS) were seeded at 50K cells per well in a 200 μL volume into the compound plate and incubated at 37° C. in a CO2 incubator for 24 h. The medium was carefully removed from the cells and the plate was placed on ice. One hundred […] of ice-cold 1× cell lysis buffer from Cell Signaling Technologies (Cat #9803) was added to each well of the cells and the plate was incubated at 4° C. on a shaker for 1 h. Fifteen […] of cell lysate was used for AR ELISA detection using a PathScan Total Sandwich AR ELISA kit (Cell Signaling Technology, Cat #12580). AR levels in compound-treated wells were normalized to that of DMSO control and expressed as percent of control (PoC) (y). A Four Parameter Logistic Model (Sigmoidal Dose-Response Model) was used to determine the compound's DC50, and EC50, using the following equation: y=(A+((B−A)/(1+((C/x)^D)))) • A=YMin (lowest AR level normalized to DMSO control in response to compound • treatment, as determined by curve fit) • B=YMax (maximum AR level as determined by curve fit) • C=EC50 • D=Hill Slope • x=compound concentration • EC50=the concentration of compound when y=(YMax−YMin)/2 • DC50=the concentration of the compound when y=50% of DMSO control (50% AR degradation) • y=AR protein level normalized to DMSO control
The lowest measured AR level normalized to DMSO control in response to compound treatment, termed Y value, was used to characterize the compound-mediated AR degradation efficiency.
(An ELISA detects its analyte on a solid surface through an enzyme-linked reagent.)

Regarding `CCc1cc(N2C(=S)N(c3cnc(C#N)c(C(F)(F)F)c3)C(=O)C2(C)C)ccc1OCCC1CCN(CC(=O)Nc2cc(Cl)cc(NC3CCC(=O)NC3=O)c2)CC1` (stereo not drawn) [Cmpd 13, N-(3-chloro-5-(2,6-dioxopiperidin-3-ylamino)phenyl)-2-(4-(2-(4-(3-(6-cyano-5-(trifluoromethyl)pyridin-3-yl)-5,5-dimethyl-4-oxo-2-thioxoimidazolidin-1-yl)-2-ethylphenoxy)ethyl)piperidin-1-yl)acetamide], the “Y (lowest measured AR level normalized to DMSO control)” value was “* (0<Y<=25%)” and the DC50 (in general, the concentration giving 50% degradation) was < 100 nM.

For `CCc1cc(N2C(=S)N(c3cnc(C#N)c(C(F)(F)F)c3)C(=O)C2(C)C)ccc1OCCC1CCN(CC(=O)Nc2cc(NC3CCC(=O)NC3=O)ccc2Cl)CC1` (stereo not drawn) [Cmpd 14, N-(2-chloro-5-(2,6-dioxopiperidin-3-ylamino)phenyl)-2-(4-(2-(4-(3-(6-cyano-5-(trifluoromethyl)pyridin-3-yl)-5,5-dimethyl-4-oxo-2-thioxoimidazolidin-1-yl)-2-ethylphenoxy)ethyl)piperidin-1-yl)acetamide], the “Y (lowest measured AR level normalized to DMSO control)” value was “* (0<Y<=25%)” and the DC50 lay within 100 to 500 nM.

Regarding `CCc1cc(N2C(=S)N(c3cnc(C#N)c(C(F)(F)F)c3)C(=O)C2(C)C)ccc1OCCC1CCN(CC(=O)Nc2cc(NC3CCC(=O)NC3=O)ccc2F)CC1` (stereo not drawn) [Cmpd 15, 2-(4-(2-(4-(3-(6-cyano-5-(trifluoromethyl)pyridin-3-yl)-5,5-dimethyl-4-oxo-2-thioxoimidazolidin-1-yl)-2-ethylphenoxy)ethyl)piperidin-1-yl)-N-(5-(2,6-dioxopiperidin-3-ylamino)-2-fluorophenyl)acetamide], the “Y (lowest measured AR level normalized to DMSO control)” value was “* (0<Y<=25%)” and the DC50 was < 100 nM.

For the compound `CCc1cc(N2C(=S)N(c3cnc(C#N)c(C(F)(F)F)c3)C(=O)C2(C)C)ccc1OCCC1CCN(CC(=O)Nc2cc(F)cc(NC3CCC(=O)NC3=O)c2)CC1` (stereo not drawn) [Cmpd 16, 2-(4-(2-(4-(3-(6-cyano-5-(trifluoromethyl)pyridin-3-yl)-5,5-dimethyl-4-oxo-2-thioxoimidazolidin-1-yl)-2-ethylphenoxy)ethyl)piperidin-1-yl)-N-(3-(2,6-dioxopiperidin-3-ylamino)-5-fluorophenyl)acetamide], the “Y (lowest measured AR level normalized to DMSO control)” value is “* (0<Y<=25%)” and the 50% degradation concentration (DC50) was < 100 nM.

In the case of `CCc1cc(N2C(=S)N(c3ccc(C#N)c(C(F)(F)F)c3)C(=O)C2(C)C)ccc1OCCC1CCN(CC(=O)Nc2cccc(NC3CCC(=O)NC3=O)c2)CC1` (stereo not drawn) [Cmpd 17, 2-(4-(2-(4-(3-(4-cyano-3-(trifluoromethyl)phenyl)-5,5-dimethyl-4-oxo-2-thioxoimidazolidin-1-yl)-2-ethylphenoxy)ethyl)piperidin-1-yl)-N-(3-(2,6-dioxopiperidin-3-ylamino)phenyl)acetamide], the “Y (lowest measured AR level normalized to DMSO control)” value is recorded as “* (0<Y<=25%)” and the DC50 was < 100 nM.

With `CCc1cc(N2C(=S)N(c3ccc(C#N)c(C(F)(F)F)c3)C(=O)C2(C)C)ccc1OCCC1CCN(CC(=O)Nc2cc(NC3CCC(=O)NC3=O)ccc2F)CC1` (stereo not drawn) [Cmpd 18, 2-(4-(2-(4-(3-(4-cyano-3-(trifluoromethyl)phenyl)-5,5-dimethyl-4-oxo-2-thioxoimidazolidin-1-yl)-2-ethylphenoxy)ethyl)piperidin-1-yl)-N-(5-(2,6-dioxopiperidin-3-ylamino)-2-fluorophenyl)acetamide], the “Y (lowest measured AR level normalized to DMSO control)” value is “* (0<Y<=25%)” and the half-maximal degradation concentration (DC50) was 100 to 500 nM.

On to `CCc1cc(N2C(=S)N(c3ccc(C#N)c(C(F)(F)F)c3)C(=O)C2(C)C)ccc1OCCC1CCN(CC(=O)Nc2cc(F)cc(NC3CCC(=O)NC3=O)c2)CC1` (stereo not drawn) [Cmpd 19, 2-(4-(2-(4-(3-(4-cyano-3-(trifluoromethyl)phenyl)-5,5-dimethyl-4-oxo-2-thioxoimidazolidin-1-yl)-2-ethylphenoxy)ethyl)piperidin-1-yl)-N-(3-(2,6-dioxopiperidin-3-ylamino)-5-fluorophenyl)acetamide], for which the “Y (lowest measured AR level normalized to DMSO control)” value is given as “* (0<Y<=25%)” and the DC50 lay within 100 to 500 nM.

As for `CCc1cc(N2C(=S)N(c3ccc(C#N)c(C(F)(F)F)c3)C(=O)C2(C)C)ccc1OCCC1CCN(CC(=O)Nc2cc(Cl)cc(NC3CCC(=O)NC3=O)c2)CC1` (stereo not drawn) [Cmpd 20, N-(3-chloro-5-(2,6-dioxopiperidin-3-ylamino)phenyl)-2-(4-(2-(4-(3-(4-cyano-3-(trifluoromethyl)phenyl)-5,5-dimethyl-4-oxo-2-thioxoimidazolidin-1-yl)-2-ethylphenoxy)ethyl)piperidin-1-yl)acetamide], the “Y (lowest measured AR level normalized to DMSO control)” value is listed as “* (0<Y<=25%)” and the DC50 is < 100 nM.

`CCc1cc(N2C(=S)N(c3ccc(C#N)c(C(F)(F)F)c3)C(=O)C2(C)C)ccc1OCCC1CCN([C@H](C)C(=O)Nc2cc(Cl)cc(NC3CCC(=O)NC3=O)c2)CC1` (stereo partly drawn) [Cmpd 21, (2R)-N-(3-chloro-5-(2,6-dioxopiperidin-3-ylamino)phenyl)-2-(4-(2-(4-(3-(4-cyano-3-(trifluoromethyl)phenyl)-5,5-dimethyl-4-oxo-2-thioxoimidazolidin-1-yl)-2-ethylphenoxy)ethyl)piperidin-1-yl)propanamide]: the “Y (lowest measured AR level normalized to DMSO control)” value is “* (0<Y<=25%)” and the DC50 is 100 to 500 nM.

On to `CC(F)(F)c1cc(N2C(=S)N(c3cnc(C#N)c(C(F)(F)F)c3)C(=O)C2(C)C)ccc1OCCC1CCN(CC(=O)Nc2cc(F)cc(NC3CCC(=O)NC3=O)c2)CC1` (stereo not drawn) [Cmpd 22, 2-(4-(2-(4-(3-(6-cyano-5-(trifluoromethyl)pyridin-3-yl)-5,5-dimethyl-4-oxo-2-thioxoimidazolidin-1-yl)-2-(1,1-difluoroethyl)phenoxy)ethyl)piperidin-1-yl)-N-(3-(2,6-dioxopiperidin-3-ylamino)-5-fluorophenyl)acetamide], for which the “Y (lowest measured AR level normalized to DMSO control)” value is on record as “* (0<Y<=25%)” and the DC50 was < 100 nM.

Regarding `CCc1cc(N2C(=S)N(c3cnc(C#N)c(C(F)(F)F)c3)C(=O)C2(C)C)ccc1OCCC1CCN([C@@H](C)C(=O)Nc2cc(Cl)cc(NC3CCC(=O)NC3=O)c2)CC1` (stereo partly drawn) [Cmpd 23, (2S)-N-(3-chloro-5-(2,6-dioxopiperidin-3-ylamino)phenyl)-2-(4-(2-(4-(3-(6-cyano-5-(trifluoromethyl)pyridin-3-yl)-5,5-dimethyl-4-oxo-2-thioxoimidazolidin-1-yl)-2-ethylphenoxy)ethyl)piperidin-1-yl)propanamide], the “Y (lowest measured AR level normalized to DMSO control)” value is “* (0<Y<=25%)” and the DC50 is < 100 nM.

As for `CC(F)(F)c1cc(N2C(=S)N(c3cnc(C#N)c(C(F)(F)F)c3)C(=O)C2(C)C)ccc1OCCC1CCN(CC(=O)Nc2cc(Cl)cc(NC3CCC(=O)NC3=O)c2)CC1` (stereo not drawn) [Cmpd 24, N-(3-chloro-5-(2,6-dioxopiperidin-3-ylamino)phenyl)-2-(4-(2-(4-(3-(6-cyano-5-(trifluoromethyl)pyridin-3-yl)-5,5-dimethyl-4-oxo-2-thioxoimidazolidin-1-yl)-2-(1,1-difluoroethyl)phenoxy)ethyl)piperidin-1-yl)acetamide], the “Y (lowest measured AR level normalized to DMSO control)” value was “* (0<Y<=25%)” and the DC50 lay in the range of 100 to 500 nM.
